Measurements reported in patent US20050085491A1, “Novel crystalline forms of valacyclovir hydrochloride” (priority 2003, published 2005).
“Also recorded” adds a separate entry of the source.

Tests used:
[1] = transformation of crystalline form on drying or squeezing (form identified by XRD); format: physicochemical
Procedure: All powder x-ray diffraction patterns were obtained by methods known in the art using a Scintag X′TRA X-ray powder diffractometer, equipped with a solid state Si(Li) detector thermoelectrically cooled, at scanning speed of 3° min.^−1. The scanning range was 2-40 degrees two-theta. Copper radiation of […] was used. The term x-ray diffraction “peaks” as used herein refers to x-ray diffraction reflections measured using an x-ray powder diffractometer. “Wet” samples (i.e. samples not dried) were analyzed “as is”. Dry samples were gently ground before analysis.
In yet another embodiment, the present invention relates to transformation, especially by drying or thermal treatment, of herein disclosed crystalline forms of valacyclovir hydrochloride to valacyclovir hydrochloride form I.
In a further embodiment, the present invention relates to transformation, especially by drying or squeezing, of herein disclosed crystalline forms of valacyclovir hydrochloride to valacyclovir hydrochloride for IV.

[2] = transformation of crystalline form on exposure to relative humidity; format: physicochemical; conditions: atmosphere of about 50% relative humidity for a day or more
[3] = oral administration; cited from earlier work
[4] = oral administration, healthy adults; cited from earlier work
[5] = drying at 50° to 60° C. for about 30 min or more, hydrochloride
[6] = drying, conditions not stated, hydrochloride

CC(C)[C@H](N)C(=O)OCCOCn1cnc2c(=O)nc(N)[nH]c21.Cl [form IX, valacyclovir hydrochloride]
crystalline form obtained on drying [1, 5]: yields an anhydrous form of valacyclovir hydrochloride | crystalline form obtained on drying [1, 6]: mixture of form I and anhydrous form

CC(C)[C@H](N)C(=O)OCCOCn1cnc2c(=O)nc(N)[nH]c21.Cl [form V, valacyclovir hydrochloride]
crystalline form before and after drying ([1]; dried at 50° C. under vacuum, hydrochloride): valacyclovir hydrochloride form V | crystalline form obtained on drying [1, 6]: form V

CC(C)[C@H](N)C(=O)OCCOCn1cnc2c(=O)nc(N)[nH]c21.Cl [form VIII, valacyclovir hydrochloride]
crystalline form obtained on drying ([1]; drying at 20° to 120° C. for at least about 30 min): yields a hydrate of valacyclovir hydrochloride form I | crystalline form obtained on drying ([1]; drying at 50-120° C.): resulted in form I

CC(C)[C@H](N)C(=O)OCCOCn1cnc2c(=O)nc(N)[nH]c21.Cl [form X, valacyclovir hydrochloride]
crystalline form obtained on drying [1, 5]: yields a hydrate of valacyclovir form I

CC(C)[C@H](N)C(=O)OCCOCn1cnc2c(=O)nc(N)[nH]c21.Cl [form XI, valacyclovir hydrochloride]
crystalline form obtained on drying ([1]; about 700 mm Hg, about 35° C., after 16 hours, about 35% humidity): form VIII | crystalline form obtained on drying ([1]; about 700 mm Hg, about 35° C., after 20 hours, 30% humidity): form IV | crystalline form obtained on drying [1, 6]: transformed to form I; also recorded: converted to form I | crystalline form obtained on drying ([1]; vacuum of 250-350 mm Hg at about 35 degrees up to humidity of about 20%): form IV | crystalline form obtained on reducing the water content ([1]; water content reduced to about 15 to 25%, e.g. by drying at about 30° to about 50° C.): transformation to form IV | crystalline form obtained on squeezing ([1]; wet sample squeezed on a Buchner filter up to humidity of about 20%): form VIII

CC(C)[C@H](N)C(=O)OCCOCn1cnc2c(=O)nc(N)[nH]c21.Cl [form XII, valacyclovir hydrochloride]
crystalline form obtained on exposure to humidity [2]: transformation to valacyclovir hydrochloride form I

CC(C)[C@H](N)C(=O)OCCOCn1cnc2c(=O)[nH]c(N)nc21 [valacyclovir, 1-valine, 2-[(2-amino-1,6-dihydro-6-oxo-9H-purin-9-yl)methoxy]ethyl ester]
absorption from the gastrointestinal tract [3]: rapidly absorbed | conversion to acyclovir [4]: converted rapidly and virtually completely to acyclovir
